For test [1], the system named is calcium-induced arrythmias. Nature of the test: Calcium-induced arrhythmia model in mice. Type of test: in vivo. The following applies: mouse, in vivo, iv. The method, then:
The antiarrhythmic effects of compounds of this invention were tested in an in vivo model of calcium-induced arrythmias according to the model of Lynch et al.^[37]. […]. Commercial solutions of hypnorm and midazolam were diluted 1:1 in distilled water and one part diluted Hypnorm® is mixed with one part diluted midazolam.
The anaesthesia was induced by s.c. administration in a dose of 0.05-0.075 μl/10 gram mouse. An i.v cannula was inserted into the tail vein. The lead II ECG signal was recorded continuously by positioning of a stainless steel ECG electrodes on the right forelimb and on the left hind limb. The ground electrode was placed on the right hind limb. The signal was amplified (x 5.000-10.000) and filtered (0.1-150 Hz) via a Hugo Sachs Electronic model 689 ECG module. The analogue signal was digitised via a 12 bit data acquisition board (Data Translation model DT321) and sampled at 1000 Hz using the Notocord HEM 3.1 software for Windows NT. After a 10-min equilibration period, the test sample of drug was injected into the tail vein. Mice pre-treated with vehicle were tested as a measure of the control level in untreated animals. The injection volume was 100 μl in all experiments. Infusion of CaCl2 (30 mg/ml, 0.1 ml/min≈100 mg/kg/min (calciumchlorid-2-hydrat, Riedel-de Häen, Germany)) was started 3 min after i.v. administration of drug or vehicle. The time lag to onset of 2nd degree AV-block was determined as the time from the start of CaCl2 infusion until the first arrhythmic event occured. An event of 2nd degree AV-block was defined as intermittent failure of the AV conduction characterised by a P-wave without the concomitant QRS complex.
Responses were expressed relative to the time until 2nd degree AV-block occurred in vehicle treated mice.

The next test concerns human osteoblastic cells. Nature of the test: Intercellular calcium wave propagation in human osteoblasts. Type of test: cell-based. The following applies: 10^−8 M; medium without glucose (1.4 cells before); after ATP desensitization. Here is the method: Human osteblast cells (hOB): Cells were isolated from human bone marrow obtained by puncture of the posterior iliac spine of healthy volunteers (aged 20-36): 10-15 ml marrow material was collected in 15 ml PBS+Ca,Mg (Life Technologies, Cat.No. 14040) with 100 U/ml Heparin (Sigma, Cat.No. H-3149). The mononuclear fraction of the marrow was isolated on a Lymphoprep gradient (Nycomed Pharma, Cat.No. 1001967), by centrifugation at 2200 rpm for 30 min. After harvesting, the mononuclear fraction was washed once with culture medium and centrifuged at 1800 rpm for 10 min. Subsequently cells were counted and plated in culture medium at 8×10^6 cells/100 mm dish. hOB medium (all reagents obtained from Life Technologies): MEM w/o Phenol Red w/Glutamax (Cat.No. 041-93013) supplemented with 10% heat inactivated fetal calf serum (Cat.No. 10106) and 0.1% Penicillin/Streptomycin (Cat.No. 15140). Medium was changed the following day and the cells were cultured at 37° C. in 5%CO2 with medium change every 7 days. After 3-4 weeks of culture the cells had reached 70% confluence. The medium was then supplemented with 100 nM Dexamethasone (Sigma, Cat.No. D-4902) for 7 days. […]
Metabolic stress induced by hypoglycemia is also known to decrease gap junctional communication. […] After ATP desensitization as described above, one single cell was stimulated mechanically, and the number of cells in the wave was recorded. […]

With “Ac-D-Tyr-D-Pro-D-4Hyp-Gly-D-Ala-Gly-NH2 [Compound 2]”, the In vivo activity entry in test [1] is reported as “+++ (key: +++: >60% increase in time until arrhythmia; ++: 30-50% increase in time until arrhythmia; +: 15-29% increase in time until arrhythmia; (+): ≦15% increase in time until arrythmia)”. Also, the “average number of cells in the calcium wave” value in the test with human osteoblastic cells is reported as 2.9 cells.

The values above are taken from patent US7250397B2, “Antiarrhythmic peptides” (Zealand Pharma A/S, priority 2000, dated 2007).
